{
  "source": "patent US9370503B1",
  "about": "“Compounds for treating ocular diseases” (priority 2015, dated 2016)",
  "key": {"[1]": {"system": "Ocular Hypertensive Rabbit", "test": "Ocular blood flow in ocular hypertensive rabbit (colored microspheres)", "type": "in vivo", "conditions": "1% topical instillation, 30 minutes after drug instillation", "procedure": "0.5% alcaine was purchased commercially. A 20% sterilized hypertonic saline solution was prepared in the laboratory. Colored microspheres were purchased from E-Z Trac (Los Angeles, Calif.). The colored microspheres were diluted with saline containing 0.01% (v/v) of Tween 80 to prevent the microspheres from sticking together. Two million microspheres in 0.4 ml were injected at each time point.\nFemale New Zealand white rabbits weighing 2.-3.0 kg, were purchased commercially. Animal care and treatment were followed by the institutional guidelines.\nRabbits were anesthetized with 35 mg/kg ketamine and 5 mg/kg xylazine by intramuscular injection. Half of the initial dose was given every one hour thereafter. The left ventricle was cannulated through the right carotid artery for injection of colored microspheres and the femoral artery was cannulated for collection of blood samples. The left eye was treated with one drop of proparacaine hydrochloride ophthalmic solution (Bausch & Lomb, Inc., Tampa, Fla., USA). The needle was inserted directly into the anterior chamber of the left eye, which was connected to the 40 mmHg saline manometer. The ocular hypertensive model reduced the ocular blood flow to approximately one third of the normal valued. 50 μl of 10 g/l flavone or vehicle (30% HP-β-CD solution) was instilled topically to the left eye 30 minutes after the ocular hypertensive model was built. The ocular blood flow was measured by colored microspheres at 0, 30, 60 and 120 minutes after treatment with the compounds or vehicle. At each time point, 2 million microspheres were injected as a reference, and blood samples were taken from the femoral artery for exactly one minute following injection of the microspheres. The blood sample was collected in a heparinized tube and the volume was recorded. The rabbits were euthanized with an injection of 100 mg/kg pentobarbital sodium after the last blood sampling. The left eyes were enucleated and dissected into the iris, ciliary body, retina and choroid. All the tissues were weighed.\nThe details of sample processing and microsphere counting were provided by E-Z Trac (Los Angeles, Calif., USA). In brief, the blood hemolysis reagent was added to the microfuge tubes with the blood sample, then vortexed and centrifuged for 30 minutes at 6000 rpm. The supernatant was removed, and then tissue/blood digest reagents I and II were added. The tubes were capped, vortexed, and centrifuged for 30 minutes. […] The number of microspheres was counted by the hemocytometer under the microscope. […] The protocol thereafter was the same as that used to process the blood samples, and the microspheres were counted.\nThe blood flow of each tissue at a certain time point was calculated according to the following formula: Qm=(Cm×Qr)/Cr. […]"}, "[2]": {"system": "rat's retinal function after ischemic insult", "test": "b-wave recovery of retinal function after ischemic insult (ERG)", "type": "in vivo", "conditions": "1% instilled topically", "procedure": "The retinal ischemia experiment has been described previously (Chiou et al., J. Ocular Pharmacol. 9:179-185, 1993, and Chiou et al., J. Ocular Pharmacol. 10:493-498, 1994). Electroretinograms (ERG) were carried out to assess the retinal function prior to and after the ischemic insult. ERGs were recorded using Ag/AgCl electrodes placed in contact with the cornea. One stainless steel needle was inserted subcutaneously between the two eyes as a reference electrode, and another needle was inserted subcutaneously into the neck as a ground electrode. A photostimulator (Grass PS22 Flash) was used to produce flashes of light 5 inches from the eye, and the ERG potentials were recorded on a polygraph. The ERG system was purchased from LKC Technologies, Inc. (Gaithersburg, Md.). A single flash (10 msec) of white light stimuli was used to evoke ERG a- and b-waves. Peak b-wave amplitudes were measured from the trough of the a-wave to the peak of the b-wave.\nLong-Evans rats (200-250 g), dark-adapted at least 2 hours, were anaesthetized intramuscularly with ketamine (35 mg/kg) plus xylazine (5 mg/kg). Half of the initial dose was administrated at one hour intervals to maintain adequate anesthesia. The pupils were dilated with 1% tropicamide (50 μl) for ERG experiments. Retinal ischemia was produced by occlusion of the central retina and posterior ciliary arteries using a ligature placed around the optic nerve and posterior ciliary artery. The ligature was drawn tightly through a micropipette tip placed at the base of the eyeball socket to occlude the retinal vessels for 30 min. After 30 min of retinal ischemia, the ligature was liberated and the retinal arteries allowed to reperfuse. ERGs were measured at 30, 60, 90, 120, 180 and 240 min thereafter. The compounds and vehicle were administered topically before occlusion of the central retinal arteries."}},
  "data": [
    {"smiles": "CC(C)=CCC/C(C)=C/Cc1c(O)cc2c(c1O)C(=O)C[C@@H](c1ccc(O)c(O)c1)O2", "note": "[Formula (I)]", "values": [
      {"measurement": "blood flow in choroid", "setting": "[1]", "result": "significantly increased"},
      {"measurement": "blood flow in iris", "setting": "[1]", "result": "significantly increased"},
      {"measurement": "b-wave amplitude recovery, of the original level", "setting": "[2]; after 30 min retinal ischemia and reperfusion", "result": "approximately 50%"},
      {"measurement": "duration of drug action on b-wave recovery", "setting": "[2]; after drug application", "result": "at least 240 min"}
    ]}
  ]
}
